Results as given in patent US5424303A, “Substituted aminophosphonate derivatives, process for their preparation and pharmaceutical compositions containing them” (Symphar SA, priority 1992, dated 1995).
Structures can show the parent of a compound that is named as a salt.

Assays:
plasma cholesterol = experiment: Hypocholesterolemic activity, plasma cholesterol in mice fed test compound in diet; assay type: in vivo, OF1 strain mice; settings: for change in vivo at 180 mg/kg/day: Mus musculus, feed or water, 240 h, read-out: Plasma Cholesterol (% Control), 0.1% compound in food, 10 days, ca. 180 mg/kg daily, mouse; for decrease plasma cholesterol by / Plasma Cholesterol (% Control): mouse, 10 days; for decrease plasma cholesterol by: 0.1% in food; for Plasma Cholesterol (% Control): 0.1% compound in food, ca. 180 mg/kg daily
Method: A. Hypocholesterolemic activity
Mouse fed a normal diet is a convenient model which was proposed by several authors (P. Olivier et al, Atherosclerosis 70, 107-114, 1988) ,for the screening for hypocholesterolemic drugs. OF1 strain mice (Iffa Credo) weighing between 25 and 35 g were divided into 5 groups of 5 animals each, four groups received the test compounds and the fifth group served as control. The test compounds were dissolved in diethyl ether. The ether solution was added to food to obtain a final concentration of 0.1%. compound in food. Ether was then evaporated at room temperature. The animals were fed for 10 days, the dally food intake corresponds to ca. 180 mg/kg. After an overnight fast, they were sacrificed by decapitation under ether anesthesia. Blood samples were collected using EDTA as anticoagulant.
Plasma cholesterol was measured by an enzymatic test (DIAMED, Morat, Switzerland). The mean values of each group receiving the test or reference compounds were expressed as percent of mean value of the contemporary control.

[1] = test system: lipid peroxidation (rat liver homogenate); experiment: Antioxidant activity, inhibition of iron induced lipid peroxidation in liver homogenate; assay type: biochemical, Wistar rat; settings: FeSO4, 37° C., 2 h; <25 μM where IC50 was not determined
Method: The liver of a Wistar rat anesthetized with ether was collected and homogenized in 4 volumes of phosphate buffer (+4° C., pH 7.4) by means of a Potter. After centrifugation at 2000 rpm for 10 min the supernatant obtained was kept at +4° C. Lipid peroxidation was carried out in presence of FeSOhd according to the method described by A. T. Quitaniha et at, Ann.
The mixture contained 1.7 ml phosphate buffer, 0.2 ml homogenate and 0.1 ml of a 2 mM FeSO4 solution. The test compounds were added in a volume of 61 μl of ethanol or DMSO. Oxydation was carried out at 37° C. for 2 h and was stopped by the addition of 20 μl of 2% ethanolic solution of BHT.

Structure (SMILES) | change in vivo at 180 mg/kg/day (plasma cholesterol) | IC50 [1] | decrease plasma cholesterol by (plasma cholesterol) | Plasma Cholesterol (% Control) (plasma cholesterol)
CCCOP(=O)(OCCC)C(NCCc1ccc(Cl)cc1)c1cc(C(C)(C)C)c(O)c(C(C)(C)C)c1 (stereo not drawn) [Compound 18] | -23% | 2.9 µM | – | –
CC(C)OP(=O)(OC(C)C)C(NCCc1ccc(Cl)cc1)c1cc(C(C)(C)C)c(O)c(C(C)(C)C)c1 (stereo not drawn) [Compound 19] | -33% | 3 µM | more than 30% | –
CCCCOP(=O)(OCCCC)C(NCCc1ccc(Cl)cc1)c1cc(C(C)(C)C)c(O)c(C(C)(C)C)c1 (stereo not drawn) [Compound 20] | -9% | 3.4 µM | – | –
COP(=O)(OC)C(NCCCc1ccccc1)c1cc(C(C)(C)C)c(O)c(C(C)(C)C)c1 (stereo not drawn) [Compound 21] | -33% | < 25 µM | more than 30% | –
CCOP(=O)(OCC)C(NCCCc1ccccc1)c1cc(C(C)(C)C)c(O)c(C(C)(C)C)c1 (stereo not drawn) [Compound 22, Diethyl α-(3,5-di-tert-butyl-4-hydroxyphenyl)-N-(3-phenytpropyl)aminomethylphosphonate] | – | 4 µM | more than 30% | -53 % Control
CCCOP(=O)(OCCC)C(NCCCc1ccccc1)c1cc(C(C)(C)C)c(O)c(C(C)(C)C)c1 (stereo not drawn) [Compound 23] | -4% | < 25 µM | – | –
CC(C)OP(=O)(OC(C)C)C(NCCCc1ccccc1)c1cc(C(C)(C)C)c(O)c(C(C)(C)C)c1 (stereo not drawn) [Compound 24] | -22% | < 25 µM | – | –
CCCCOP(=O)(OCCCC)C(NCCCc1ccccc1)c1cc(C(C)(C)C)c(O)c(C(C)(C)C)c1 (stereo not drawn) [Compound 25] | -4% | < 25 µM | – | –
CCOP(=O)(OCC)C(NCCCc1ccccc1)c1cc(C(C)(C)C)c(O)c(C(C)(C)C)c1 (stereo not drawn) [Compound 26, Hydrochloride salt of diethyl α-(3,5-di-tert-butyl-4-hydroxyphenyl),N-(3-phenylpropyl)-animomethylphosphonate] | – | < 25 µM | – | -11 % Control
CCOP(=O)(OCC)C(NCCCCc1ccccc1)c1cc(C(C)(C)C)c(O)c(C(C)(C)C)c1 (stereo not drawn) [Compound 27, Diethyl α-(3 ,5-di-tert-butyl-4-hydroxyphenyl)-N-(4-phenylbutyl)-aminomethylphosphonate] | -43% | 2.1 µM | more than 30% | –
CCOP(=O)(OCC)C(NCCOc1ccccc1)c1cc(C(C)(C)C)c(O)c(C(C)(C)C)c1 (stereo not drawn) [Compound 28] | 4% | < 25 µM | – | –
CCOP(=O)(OCC)C(NC(C)c1ccccc1)c1cc(C(C)(C)C)c(O)c(C(C)(C)C)c1 (stereo not drawn) [Compound 29, Diethyl α-(3,5-di-tert-butyl-4-hydroxyphenyl)-N-(1-phenylethyl)-aminomethyldiphosphonate] | -32% | 5.5 µM | more than 30% | –
CCOP(=O)(OCC)C(NC(C)CCc1ccccc1)c1cc(C(C)(C)C)c(O)c(C(C)(C)C)c1 (stereo not drawn) [Compound 30] | -12% | 15.6 µM | – | –
CCOP(=O)(OCC)C(NC(C)c1cccc2ccccc12)c1cc(C(C)(C)C)c(O)c(C(C)(C)C)c1 (stereo not drawn) [Compound 31] | -3% | < 25 µM | – | –
CCOP(=O)(OCC)C(NC(c1ccccc1)c1ccccc1)c1cc(C(C)(C)C)c(O)c(C(C)(C)C)c1 (stereo not drawn) [Compound 32] | -12% | < 25 µM | – | –
CCOP(=O)(OCC)C(NC(Cc1ccccc1)c1ccccc1)c1cc(C(C)(C)C)c(O)c(C(C)(C)C)c1 (stereo not drawn) [Compound 33] | -14% | < 25 µM | – | –

Structure (SMILES) | change in vivo at 180 mg/kg/day (plasma cholesterol) | IC50 [1] | decrease plasma cholesterol by (plasma cholesterol) | Plasma Cholesterol (% Control) (plasma cholesterol)
CCOP(=O)(OCC)C(NC1CC(C)(C)NC(C)(C)C1)c1cc(C(C)(C)C)c(O)c(C(C)(C)C)c1 (stereo not drawn) [Compound 35] | -17% | > 25 µM | – | –
CCOP(=O)(OCC)C(NC1CCN(Cc2ccccc2)CC1)c1cc(C(C)(C)C)c(O)c(C(C)(C)C)c1 (stereo not drawn) [Compound 36] | -6% | < 25 µM | – | –
CCOP(=O)(OCC)C(NCCc1cccn1C)c1cc(C(C)(C)C)c(O)c(C(C)(C)C)c1 (stereo not drawn) [Compound 37] | 12% | 4 µM | – | –
CCOP(=O)(OCC)C(NCc1ccc2c(c1)OCO2)c1cc(C(C)(C)C)c(O)c(C(C)(C)C)c1 (stereo not drawn) [Compound 38, Diethyl α-(3,5-di-tert-butyl4-hydroxyphenyl)-N-piperonyl-aminomethylphosphonate] | -40% | 4.3 µM | more than 30% | –
CCOP(=O)(OCC)C(NCc1ccc(OC)c(OC)c1)c1cc(C(C)(C)C)c(O)c(C(C)(C)C)c1 (stereo not drawn) [Compound 39] | -4% | 4.9 µM | – | –
CCOP(=O)(OCC)C(Nc1cccnc1)c1cc(C(C)(C)C)c(O)c(C(C)(C)C)c1 (stereo not drawn) [Compound 41] | -35% | 3.5 µM | – | –
CCOP(=O)(OCC)C(NCc1cccnc1)c1cc(C(C)(C)C)c(O)c(C(C)(C)C)c1 (stereo not drawn) [Compound 42, Diethyl α-(3,5-di-tert-butyl-4-hydroxyphenyl)-N-(3-picolyl)-aminomethylphosphonate] | -43% | 12.8 µM | more than 30% | –
CCOP(=O)(OCC)C(NCCc1ccccn1)c1cc(C(C)(C)C)c(O)c(C(C)(C)C)c1 (stereo not drawn) [Compound 43, Diethyl α-(3,5-di-tert-butyl-4-hydroxyphenyl)-N-[2-(2-pyridyl)-ethyl]aminomethyl-phosphonate] | -35% | < 25 µM | more than 30% | –
CCOP(=O)(OCC)C(Nc1nc2ccccc2s1)c1cc(C(C)(C)C)c(O)c(C(C)(C)C)c1 (stereo not drawn) [Compound 44, Diethyl α-(3.5-di-tert-butyl-4-hydroxyphenyl)-N-(2-benzothiazolyl)-aminomethylphosphonate] | -17% | < 25 µM | – | –
CCOP(=O)(OCC)C(NC1(c2ccccc2)CCCC1)c1cc(C(C)(C)C)c(O)c(C(C)(C)C)c1 (stereo not drawn) [Compound 45, Diethyl α-(3,5-di-tert-butyl-4-hydroxyphenyl)-N-(1-phenylcyclopentyl)-aminomethylphosphonate] | -14% | < 25 µM | – | –
CCOP(=O)(OCC)C(NC1CCc2ccccc21)c1cc(C(C)(C)C)c(O)c(C(C)(C)C)c1 (stereo not drawn) [Compound 46] | -8% | 3.8 µM | – | –
CCOP(=O)(OCC)C(Nc1ccc2c(c1)CCC2)c1cc(C(C)(C)C)c(O)c(C(C)(C)C)c1 (stereo not drawn) [Compound 47] | -2% | 2.7 µM | – | –
CCOP(=O)(OCC)C(Nc1ccc2c(c1)Cc1ccccc1-2)c1cc(C(C)(C)C)c(O)c(C(C)(C)C)c1 (stereo not drawn) [Compound 48] | 3% | < 25 µM | – | –
CCOP(=O)(OCC)C(c1cc(C(C)(C)C)c(O)c(C(C)(C)C)c1)N(C)Cc1cccnc1 (stereo not drawn) [Compound 49, Diethyl α-(3.,5-di-tert-butyl-4-hydroxyphenyl)-N-methyl-N-(3-picolyl)aminomethylphosphonate] | -19% | 12.8 µM | – | –
CCOP(=O)(OCC)C(c1cc(C(C)(C)C)c(O)c(C(C)(C)C)c1)N(C)c1ccccc1 (stereo not drawn) [Compound 50] | 5% | 2.9 µM | – | –
COP(=O)(OC)C(c1cc(C(C)(C)C)c(O)c(C(C)(C)C)c1)N(CCCc1ccccc1)C(C)=O (stereo not drawn) [Compound 59] | -36% | < 25 µM | – | –
